Assay results from patent US20250230193A1, “CYCLIC COMPOUND HAVING SELECTIVE KRAS INHIBITORY EFFECT ON HRAS AND NRAS” (CHUGAI SEIYAKU KABUSHIKI KAISHA, priority 2022, published 2025).

How the values were obtained:
[1] = molecular target: GDP-bound NRAS wild-type protein (Homo sapiens, UniProt P01111); assay: Binding to NRAS by surface plasmon resonance (SPR), Single Cycle Kinetics; conditions: SPR, GDP-bound NRAS wild-type vs GDP-bound KRAS wild-type
[2] = molecular target: GDP-bound HRAS wild-type protein (Homo sapiens, UniProt P01112); assay: Binding to HRAS by surface plasmon resonance (SPR), Single Cycle Kinetics; conditions: SPR, GDP-bound HRAS wild-type vs GDP-bound KRAS wild-type
Sequence of GDP-bound HRAS wild-type protein (P01112 whole entry): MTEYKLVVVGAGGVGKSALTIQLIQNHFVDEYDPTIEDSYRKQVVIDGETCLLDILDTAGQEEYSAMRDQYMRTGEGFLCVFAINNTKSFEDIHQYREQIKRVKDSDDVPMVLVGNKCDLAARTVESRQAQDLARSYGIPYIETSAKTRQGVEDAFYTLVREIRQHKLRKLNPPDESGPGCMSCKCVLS

Sequence of GDP-bound NRAS wild-type protein (P01111 whole entry): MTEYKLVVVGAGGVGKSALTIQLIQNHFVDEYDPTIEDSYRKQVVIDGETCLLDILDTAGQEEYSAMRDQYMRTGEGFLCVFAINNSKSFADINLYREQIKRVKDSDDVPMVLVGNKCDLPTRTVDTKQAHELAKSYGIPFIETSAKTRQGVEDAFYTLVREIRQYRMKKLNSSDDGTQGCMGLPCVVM

Row | SMILES | NRAS/KRAS (ratio of KD value with respect to NRAS to KD value with respect to KRAS) [1] | HRAS/KRAS (ratio of KD value with respect to HRAS to KD value with respect to KRAS) [2]
1 | CCO[C@@H]1C[C@H]2C(=O)NC3(CC(C)(C)C3)C(=O)N(C)[C@@H](C(CC)CC)C(=O)N(C)[C@H](C(=O)N(C)C)CC(=O)N(C)[C@@H](CC3CCC3)C(=O)N[C@@H]([C@@H](C)CC)C(=O)N(C)CC(=O)N(C)[C@H]3C/C=C\CCN(C3=O)[C@@H](Cc3ccc(C)cc3)C(=O)N(C)CC(=O)N[C@@H](CCc3cc(F)c(C(F)(F)F)c(F)c3)C(=O)N2C1 [PP2151] | A (a compound having 10 or more and less than 20 is denoted as A) | A (a compound having 10 or more and less than 20 is denoted as A)
2 | CCO[C@@H]1C[C@H]2C(=O)NC3(CC(C)(C)C3)C(=O)N(C)[C@@H](C(CC)CC)C(=O)N(C)[C@H](C(=O)N3CCCC3)CC(=O)N(C)[C@@H](C)C(=O)N[C@@H]([C@@H](C)CC)C(=O)N(C)CC(=O)N(C)[C@H]3C/C=C\CCN(C3=O)[C@@H](Cc3ccc(C)cc3)C(=O)N(C)CC(=O)N[C@@H](CCc3ccc(C(F)(F)F)c(Cl)c3)C(=O)N2C1 [PP2152] | AA (a compound having 20 or more is denoted as AA) | A (a compound having 10 or more and less than 20 is denoted as A)
3 | CCO[C@@H]1C[C@H]2C(=O)NC3(CC(C)(C)C3)C(=O)N(C)[C@@H](C(CC)CC)C(=O)N(C)[C@H](C(=O)N(C)C)CC(=O)N(C)[C@@H](C(C)C)C(=O)N[C@@H]([C@@H](C)CC)C(=O)N(C)CC(=O)N(C)[C@H]3C/C=C\CCN(C3=O)[C@@H](Cc3ccc(C)cc3)C(=O)N(C)CC(=O)N[C@@H](CCc3cc(F)c(C(F)(F)F)c(F)c3)C(=O)N2C1 [PP2153] | A (a compound having 10 or more and less than 20 is denoted as A) | A (a compound having 10 or more and less than 20 is denoted as A)
4 | CCO[C@@H]1C[C@H]2C(=O)NC3(CC(C)(C)C3)C(=O)N(C)[C@@H](C(CC)CC)C(=O)N(C)[C@H](C(=O)N(C)C)CC(=O)N(C)[C@@H](CC)C(=O)N[C@@H]([C@@H](C)CC)C(=O)N(C)CC(=O)N(C)[C@H]3C/C=C\CCN(C3=O)[C@@H](Cc3ccc(C)cc3)C(=O)N(C)CC(=O)N[C@@H](CCc3ccc(C(F)(F)F)c(Cl)c3)C(=O)N2C1 [PP2154] | A (a compound having 10 or more and less than 20 is denoted as A) | A (a compound having 10 or more and less than 20 is denoted as A)
5 | CCO[C@@H]1C[C@H]2C(=O)NC3(CC(C)(C)C3)C(=O)N(C)[C@@H](C(CC)CC)C(=O)N(C)[C@H](C(=O)N(C)C)CC(=O)N(C)[C@@H](CC3CC3)C(=O)N[C@@H]([C@@H](C)CC)C(=O)N(C)CC(=O)N(C)[C@H]3C/C=C\CCN(C3=O)[C@@H](Cc3ccc(C(F)(F)F)cc3)C(=O)N(C)CC(=O)N[C@@H](CCc3ccc(C(F)(F)F)c(OC)c3)C(=O)N2C1 [PP2155] | A (a compound having 10 or more and less than 20 is denoted as A) | B (a compound having 3 or more and less than 10 is denoted as B)
6 | CCO[C@@H]1C[C@H]2C(=O)NC3(CC(C)(C)C3)C(=O)N(C)[C@@H](C(CC)CC)C(=O)N(C)[C@H](C(=O)N(C)C)CC(=O)N(C)[C@@H](CC3CCC3)C(=O)N[C@@H]([C@@H](C)CC)C(=O)N(C)CC(=O)N(C)[C@H]3C/C=C\CCN(C3=O)[C@@H](Cc3ccc(C)cc3)C(=O)N(C)CC(=O)N[C@@H](CCc3ccc(C(F)(F)F)c(Cl)c3)C(=O)N2C1 [PP2156] | AA (a compound having 20 or more is denoted as AA) | A (a compound having 10 or more and less than 20 is denoted as A)
7 | CCO[C@@H]1C[C@H]2C(=O)NC3(CC(C)(C)C3)C(=O)N(C)[C@@H](C(CC)CC)C(=O)N(C)[C@H](C(=O)N(C)C)CC(=O)N(C)[C@@H](COC)C(=O)N[C@@H]([C@@H](C)CC)C(=O)N(C)CC(=O)N(C)[C@H]3C/C=C\CCN(C3=O)[C@@H](Cc3ccc(C(F)(F)F)cc3)C(=O)N(C)CC(=O)N[C@@H](CCc3ccc(C(F)(F)F)c(OC)c3)C(=O)N2C1 [PP2157] | A (a compound having 10 or more and less than 20 is denoted as A) | A (a compound having 10 or more and less than 20 is denoted as A)
8 | CCO[C@@H]1C[C@H]2C(=O)NC3(CC(C)(C)C3)C(=O)N(C)[C@@H](C(CC)CC)C(=O)N(C)[C@H](C(=O)N(C)C)CC(=O)N(C)[C@@H](C(C)C)C(=O)N[C@@H]([C@@H](C)CC)C(=O)N(C)CC(=O)N(C)[C@H]3C/C=C\CCN(C3=O)[C@@H](Cc3ccc(C)cc3)C(=O)N(C)CC(=O)N[C@@H](CCc3ccc(C(F)(F)F)c(Cl)c3)C(=O)N2C1 [PP2158] | AA (a compound having 20 or more is denoted as AA) | A (a compound having 10 or more and less than 20 is denoted as A)
9 | CCO[C@@H]1C[C@H]2C(=O)NC3(CC(C)(C)C3)C(=O)N(C)[C@@H](C(CC)CC)C(=O)N(C)[C@H](C(=O)N3CCCC3)CC(=O)N(C)[C@@H](COC)C(=O)N[C@@H]([C@@H](C)CC)C(=O)N(C)CC(=O)N(C)[C@H]3C/C=C\CCN(C3=O)[C@@H](Cc3ccc(C(F)(F)F)cc3)C(=O)N(C)CC(=O)N[C@@H](CCc3ccc(C(F)(F)F)c(OC)c3)C(=O)N2C1 [PP2159] | AA (a compound having 20 or more is denoted as AA) | A (a compound having 10 or more and less than 20 is denoted as A)
10 | CCC[C@H]1C(=O)N[C@@H]([C@@H](C)CC)C(=O)N(C)CC(=O)N(C)[C@H]2C/C=C\CCN(C2=O)[C@@H](Cc2ccc(C(F)(F)F)cc2)C(=O)N(C)CC(=O)N[C@@H](CCc2ccc(C(F)(F)F)c(OC)c2)C(=O)N2C[C@H](OCC)C[C@H]2C(=O)NC2(CC(C)(C)C2)C(=O)N(C)[C@@H](C(CC)CC)C(=O)N(C)[C@H](C(=O)N(C)C)CC(=O)N1C [PP2160] | A (a compound having 10 or more and less than 20 is denoted as A) | A (a compound having 10 or more and less than 20 is denoted as A)
11 | CCO[C@@H]1C[C@H]2C(=O)NC3(CC(C)(C)C3)C(=O)N(C)[C@@H](C(CC)CC)C(=O)N(C)[C@H](C(=O)N(C)C)CC(=O)N(C)[C@@H](CC(C)C)C(=O)N[C@@H]([C@@H](C)CC)C(=O)N(C)CC(=O)N(C)[C@H]3C/C=C\CCN(C3=O)[C@@H](Cc3ccc(C(F)(F)F)cc3)C(=O)N(C)CC(=O)N[C@@H](CCc3ccc(C(F)(F)F)c(OC)c3)C(=O)N2C1 [PP2161] | AA (a compound having 20 or more is denoted as AA) | A (a compound having 10 or more and less than 20 is denoted as A)
12 | CCO[C@@H]1C[C@H]2C(=O)NC3(CC(C)(C)C3)C(=O)N(C)[C@@H](C(CC)CC)C(=O)N(C)[C@H](C(=O)N3CCCC3)CC(=O)N(C)[C@@H](C)C(=O)N[C@@H]([C@@H](C)CC)C(=O)N(C)CC(=O)N(C)[C@H]3C/C=C\CCN(C3=O)[C@@H](Cc3ccc(C(F)(F)F)cc3)C(=O)N(C)CC(=O)N[C@@H](CCc3ccc(C(F)(F)F)c(OC)c3)C(=O)N2C1 [PP2163] | A (a compound having 10 or more and less than 20 is denoted as A) | A (a compound having 10 or more and less than 20 is denoted as A)
